{"source": "patent US20020022041A1", "about": "“Composition and process for treating pollution” (priority 2000, published 2002)", "origin": "cited, not measured here", "data": [{"conditions": "non-toxic as defined by Section 313 Title III of SARA", "values": [{"smiles": "CCCCOCCOCCO", "note": "[2-, 2-(2-butoxyethoxy)ethanol]", "Toxicity": "Non toxic"}, {"smiles": "CCCCCCCCCCCCOP(=O)(O)O", "note": "[Lauryl Phosphate Soln, Lauryl Phosphate]", "Toxicity": "Non toxic"}, {"smiles": "CCCCCCCC/C=C\\CCCCCCCC(=O)O", "note": "[Oleic Acid]", "Toxicity": "Non toxic"}]}]}
